Measured values reported in patent publication US20240016863A1, “LACTOBACILLUS JOHNSONII AND METHOD FOR INCREASING THE LEVEL OF UNSATURATION IN FATTY ACID USING LACTOBACILLUS JOHNSONII OR METABOLITES THEREOF” (TCI CO., LTD., priority 2022, published 2024).

Test system: HepG2 cells
Test: Cholesterol metabolism test (cholesterol uptake, NBD cholesterol, flow cytometer)
Format: cell-based, Human
Conditions: U-18666A 1.25 μM, sample 0.25% (v/v)
Method: 1. Cell line: Human liver cells, purchased from ATCC (American Type Culture Collection), cell number: HB-8065, hereinafter referred to as HepG2 cells.
5. Cholesterol Uptake Cell-based Assay Kit: purchased from Cayman; product number: 600440. This cholesterol uptake cell-based assay kit included U-18666A and NBD cholesterol.
1. The HepG2 cells were inoculated into a 6-well culture plate containing 2 mL of cell medium in each well according to a density of 1×10^5 cells per well, and cultured at 37° C. for 24 h. The HepG2 cells were divided into three test groups, i.e., a Mock group, a control group and an experiment group, respectively. Each group underwent trial in triplicate.
2. […]
4. After rinsing, the cells of each group were processed according to the test process provided by the cholesterol uptake cell-based assay kit to obtain a test sample of each group; the parameters of the flow cytometer were set as excitation spectra and emission spectra of FITC, and then a green fluorescence signal of each group was detected by using the flow cytometer.
The relative cholesterol uptake in hepatocytes of all groups was calculated according to the following formula: relative cholesterol uptake in hepatocytes (%)=(green fluorescence signal of each group/green fluorescence signal of the Mock group)×100%.

relative cholesterol uptake in hepatocytes (HepG2, 20 μg/mL NBD cholesterol, 24-72 h, Mock group = 100%): 143.5%
relative cholesterol uptake in hepatocytes increased compared with the Mock group (HepG2): about 43.5%
SMILES: CCN(CC)CCO[C@H]1CC[C@@]2(C)C(=CC[C@@H]3[C@@H]2CC[C@]2(C)C(=O)CC[C@@H]32)C1 [U-18666A]
